Biological target: Protein farnesyltransferase (Homo sapiens, UniProt P49354+P49356)
Test: Inhibition of farnesyl transferase
Assay type: protein-complex assay

Structure (SMILES) | IC50
CSCC[C@H](NC(=O)CN1C(=O)N(Cc2c[nH]cn2)C(=O)C1(C)c1cccc2ccccc12)C(=O)O (stereo partly drawn) | 61 µM
CC1(c2cccc3ccccc23)C(=O)N(CCCn2ccnc2)C(=O)N1Cc1cccc(C(F)(F)F)c1 (stereo not drawn) | 1.7 µM
CSCC[C@H](NC(=O)CN1C(=O)N(CCCc2c[nH]cn2)C(=O)C1(C)c1cccc2ccccc12)C(=O)O (stereo partly drawn) | 0.8 µM
CC1(c2cccc3ccccc23)C(=O)N(CCCn2ccnc2)C(=O)N1Cc1ccc(S(C)(=O)=O)cc1 (stereo not drawn) | 1.1 µM
CC1(c2cccc3ccccc23)C(=O)N(CCCn2ccnc2)C(=O)N1Cc1ccccc1CNS(C)(=O)=O (stereo not drawn) | 0.5 µM
CC1(c2cccc3ccccc23)NC(=O)N(CCCn2ccnc2)C1=O (stereo not drawn) | 7.7 µM
CC1(c2cccc3ccccc23)C(=O)N(CCCn2ccnc2)C(=O)N1Cc1ccc(C#N)cc1 (stereo not drawn) | 0.9 µM
CC1(c2cccc3ccccc23)C(=O)N(CCCn2ccnc2)C(=O)N1Cc1cccc(Oc2ccccc2)c1 (stereo not drawn) | 0.72 µM
CC1(c2cccc3ccccc23)C(=O)N(CCCn2ccnc2)C(=O)N1Cc1ccc(S(C)(=O)=O)c(C#N)c1 (stereo not drawn) | 0.73 µM
CC1(c2cccc3ccccc23)C(=O)N(CCCn2ccnc2)C(=O)N1Cc1ccc(Oc2ccccc2)cc1 (stereo not drawn) | 0.75 µM
CC1(c2cccc3ccccc23)C(=O)N(CCCn2ccnc2)C(=O)N1Cc1ccccc1C#N (stereo not drawn) | 1.3 µM
CC1(c2cccc3ccccc23)C(=O)N(CCCn2ccnc2)C(=O)N1Cc1ccc(Br)cc1 (stereo not drawn) | 0.16 µM

Second part, the compound after the results:

IC50 | Structure (SMILES)
0.7 µM | CSc1ccc(CN2C(=O)N(CCCn3ccnc3)C(=O)C2(C)c2cccc3ccccc23)cc1 (stereo not drawn)
2.8 µM | CCOC(=O)CN1C(=O)N(CCCc2cncn2C)C(=O)C1(C)c1cccc2ccccc12 (stereo not drawn)
2500 µM | COC(=O)[C@H](CCSC)NC(=O)CN1C(=O)N(CCc2cnc[nH]2)C(=O)C1(C)c1cccc2ccccc12 (stereo partly drawn)
0.37 µM | CC1(c2cccc3ccccc23)C(=O)N(CCCn2ccnc2)C(=O)N1Cc1cccc(Br)c1 (stereo not drawn)
1 µM | CCOC(=O)CN1C(=O)N(CCCn2ccnc2)C(=O)C1(C)c1cccc2ccccc12 (stereo not drawn)
4.8 µM | CSCC[C@H](NC(=O)CN1C(=O)N(CCc2cnc[nH]2)C(=O)C1(C)c1cccc2ccccc12)C(=O)O (stereo partly drawn)
0.21 µM | CSCc1ccc(CN2C(=O)N(CCCn3ccnc3)C(=O)C2(C)c2cccc3ccccc23)cc1 (stereo not drawn)
40 µM | CC1(c2cccc3ccccc23)NC(=O)N(CCCc2cnc[nH]2)C1=O (stereo not drawn)
0.2 µM | CC1(c2cccc3ccccc23)C(=O)N(CCCn2ccnc2)C(=O)N1Cc1ccc(C(=O)O)cc1 (stereo not drawn)
0.09 µM | CC1(c2cccc3ccccc23)C(=O)N(CCCn2ccnc2)C(=O)N1Cc1cccc(C#N)c1 (stereo not drawn)
0.08 µM | CSc1ccc(CN2C(=O)N(CCCn3ccnc3)C(=O)C2(C)c2cccc3ccccc23)cc1C#N (stereo not drawn)
0.24 µM | CC1(c2cccc3ccccc23)C(=O)N(CCCn2ccnc2)C(=O)N1Cc1cccc(Cl)c1 (stereo not drawn)
0.35 µM | CC1(c2cccc3ccccc23)C(=O)N(CCCn2ccnc2)C(=O)N1Cc1ccc(CNS(C)(=O)=O)cc1 (stereo not drawn)
1.2 µM | CC1(c2cccc3ccccc23)C(=O)N(CCCn2ccnc2)C(=O)N1Cc1cccc(CNS(C)(=O)=O)c1 (stereo not drawn)
19000 µM | COC(=O)[C@H](CCSC)NC(=O)CN1C(=O)N(Cc2cnc[nH]2)C(=O)C1(C)c1cccc2ccccc12 (stereo partly drawn)
500 µM | COC(=O)[C@H](CCSC)NC(=O)CN1C(=O)N(CCCc2cnc[nH]2)C(=O)C1(C)c1cccc2ccccc12 (stereo partly drawn)

— ChEMBL document CHEMBL1146930, “Hydantoin derivatives as non-peptidic inhibitors of Ras farnesyl transferase” (Bioorg Med Chem Lett, 2006)
